Data on 98 molecules can be found in PubChem BioAssay AID1117319 (Southern Research Institute, 2015).

Each structure is given as a SMILES string. Results filed as inconclusive are left out.

The target in the experiment is Virion infectivity factor (Human immunodeficiency virus type 1 group M subtype B (isolate BH10)) + Virion infectivity factor (Human immunodeficiency virus type 1 group M subtype B (isolate BRU/LAI)) + Virion infectivity factor (Human immunodeficiency virus type 1 group M subtype B (isolate PCV12)) + Virion infectivity factor (Human immunodeficiency virus type 1 group M subtype B (isolate HXB2)) + DNA dC->dU-editing enzyme APOBEC-3G (Homo sapiens) (UniProt P69720+P69721+P69722+P69723+Q9HC16). As to the kind of experiment: inhibitors of Vif binding to APOBEC3G peptide, primary screen, biochemical, TR-FRET, GST-Vif 1-94, biotin-A3G peptide, dose response retest (AID 1117319).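 Further: Vif residues 1-94 fused to GST binding biotinylated APOBEC3G peptide 110-148.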
For `CC(=O)Nc1ccc(S(=O)(=O)N2CCN(Cc3ccccn3)CC2)cc1`, the IC50 is 77.4 µM.
To `CC(=O)c1ccc2c(c1)C1C=CCC1C(c1ccncc1)N2` (stereo not drawn) belongs 3.16 µM.
For the molecule `Oc1ccc(C2Nc3cccc4cccc(c34)N2)c(O)c1`, the IC50 is 17.5 µM.
The value for `O=c1ccc2c(-c3ccccc3S(=O)(=O)O)c3ccc(O)c(O)c3oc-2c1O` was 0.34 µM; that for `O=C(Nc1ccn(-c2ccccc2)n1)c1ccccc1Br` was 10.6 µM.
On to `Cc1sc2ncnc(SCc3ccco3)c2c1C`, for which the half-inhibitory concentration (IC50) is 28.2 µM.
For the molecule `O=C(Cc1ncn[nH]1)NCCc1ccccc1`, the IC50 was 96.9 µM.
`CC1CCC/C(=C\Nc2ccc(O)cc2)C1=O` (stereo not drawn): the IC50 was 17.2 µM.
On to `Cn1cccc1/C=C1/C(=O)NC(=O)N(Cc2ccccc2)C1=O`, for which the concentration for half-maximal inhibition (IC50) is 3.33 µM.
`CC1(C)CC(=O)C2=C(C1)NCN(Cc1ccc3c(c1)OCO3)C2`: the concentration for half-maximal inhibition (IC50) was 91.6 µM.
The value for `Cc1cccc(N2C(=O)NC(=O)/C(=C/c3cc4c(cc3[N+](=O)[O-])OCO4)C2=O)c1` was 59.1 µM.
Consider `Oc1ccc(N=Cc2ccc(O)c(O)c2)cc1`, for which the concentration for half-maximal inhibition (IC50) was 0.99 µM.
With `O=C1N=C(N2CCN(c3ccccc3)CC2)S/C1=C\c1ccco1`, the concentration for half-maximal inhibition (IC50) was 4.27 µM.
`O=C(O)c1cc2cccc(S(=O)(=O)N3CCOCC3)c2cc1O`: the half-maximal inhibitory concentration (IC50) was 38 µM.
As to `Oc1cc2c(cc1O)[C@H]1c3ccc(O)c(O)c3OC[C@@]1(O)C2`, the IC50 is 0.57 µM.
For the molecule `N#C/C(=C\c1ccc([N+](=O)[O-])o1)C(=O)Nc1ccc(F)cc1`, the half-inhibitory concentration (IC50) was 7.59 µM.
`CCOC(=O)C1CCCC12Nc1cccc3cccc(c13)N2` (stereo not drawn): the IC50 was 3.74 µM.
As to `O=C(/C=C/c1cccs1)N1CCN(c2ccc(O)cc2)CC1`, the IC50 was 20.9 µM.
Take `O=C(COc1ccc(S(=O)(=O)N2CCCC2)cc1)NCCC1=CCCCC1`: the IC50 is 75.1 µM.
In the case of `O=[N+]([O-])c1ccc(O)c2ncccc12`, the IC50 was 46.5 µM.
Turning to `O=C1/C(=C\c2ccco2)SC(=S)N1c1ccccc1`, the IC50 is 2.58 µM.
For the molecule `Cc1ccc(Cl)cc1N1CCN(C(=O)COc2ccc3c(c2)CCC3)CC1`, the half-maximal inhibitory concentration (IC50) is 45.4 µM.
The value for `O=C1C=C(Nc2cccc3cccnc23)c2ccccc2C1=O` was 22.8 µM; that for `COc1ccc(NS(=O)(=O)c2cccc(C(=O)NNC(=O)c3cccn3C)c2)cc1` was 12.7 µM; that for `Cc1noc(/C=C/c2ccco2)c1S(=O)(=O)N1CCC(C(=O)N2c3ccccc3CC2C)CC1` (stereo not drawn) was 11.9 µM.
`Cc1ccc(C)n1/N=C1/NC(=O)CS1`: the IC50 is 0.9 µM.
As for `Cc1nn(Cc2ccccc2)c(C)c1C(=O)OCC(=O)c1cc(C)n(C2CC2)c1C`, the IC50 is 80.5 µM.
Take `Cc1ccc(/C=c2\sc3nc(-c4cccs4)nn3c2=O)o1`: the IC50 is 13.2 µM.
For the molecule `CN(C)c1nc(N)nc(CSc2nc3c(c(=O)n(C)c(=O)n3C)n2Cc2ccccc2F)n1`, the half-inhibitory concentration (IC50) is 60.9 µM.
Take `O=C1CCCC2=C1C(c1ccco1)Nc1ccc3ccccc3c12` (stereo not drawn): the 50% inhibitory concentration (IC50) is 4.21 µM.
With `CCC(c1nnnn1C(C)(C)CC)N(CCCO)Cc1cc2cc(C)cc(C)c2[nH]c1=O` (stereo not drawn), the 50% inhibitory concentration (IC50) is 0.49 µM.
For `CN(C)N1C(N)=C(C#N)C(c2cccnc2)C2=C1CCCC2=O` (stereo not drawn), the 50% inhibitory concentration (IC50) was 11.4 µM.
The value for `COc1ccc(NC(=O)CCCSc2ccccc2)cc1` was 47.3 µM; that for `CCCCn1c(N)c(N(CCOC)C(=O)c2cc(-c3ccco3)nc3ccccc23)c(=O)[nH]c1=O` was 10.9 µM.
As for `CCc1ccc(NC(=O)N(CCN2CCOCC2)Cc2ccc3c(c2)CCCN3CC)cc1`, the 50% inhibitory concentration (IC50) was 88.1 µM.
To `O=[N+]([O-])c1ccc(-c2ccc(/C=N/c3c(-c4ccco4)nc4ccccn34)o2)cc1` belongs 0.26 µM.
Take `CCOC(=O)C1=C(COC(=O)/C=C/c2ccco2)NC(=O)NC1C` (stereo not drawn): the IC50 is 10.9 µM.
For `Cc1ccc(N(CN2C(=O)C3CC=CCC3C2=O)C(=O)c2ccco2)cc1Cl` (stereo not drawn), the IC50 was 53.4 µM.
On to `Cc1cc(C)nc(N/N=C/C2=C(N3CCOCC3)C(=C\c3ccc(Cl)cc3)/CC2)n1`, for which the concentration for half-maximal inhibition (IC50) was 13.3 µM.
For `C=CCn1c(C)cc(-c2csc(N)n2)c1C`, the concentration for half-maximal inhibition (IC50) is 1.23 µM.
As to `C=CCn1c(SCC(=O)c2cc(C)n(C(C)COC)c2C)nc2sc(C)c(C)c2c1=O` (stereo not drawn), the IC50 is 27.1 µM.
As to `Cc1cccc(N/N=C/c2ccc(O)c(O)c2O)c1`, the IC50 was 9.51 µM.
As for `CCc1ccc(S(=O)(=O)/N=C2\C=CC(=O)c3ccccc32)cc1`, the half-inhibitory concentration (IC50) was 8.1 µM.
As for `Cc1cc(NC(=O)CCNS(=O)(=O)c2cc(Br)cnc2N)ccc1Br`, the IC50 is 35.2 µM.
`CCOC(=O)C1CCN(Cc2cnc(Oc3ccc(OC)cc3)s2)CC1`: the IC50 is 80.9 µM.
In the case of `C=CCN1C(=O)/C(=C\c2ccco2)C(C(=O)OC)=C1C`, the IC50 was 14.1 µM.
On to `COC1=C(N)C(=O)c2nc(C)ccc2C1=O`, for which the IC50 is 18.3 µM.
`Cc1occc1-c1nnc(SCC(=O)N2CCN(c3ccccc3)CC2)n1C`: the IC50 is 56.8 µM.
Take `Cc1cc(-c2ccco2)n(-c2ccccc2)n1`: the half-inhibitory concentration (IC50) was 50.4 µM.
As for `O=C1CC(/C=C/c2ccco2)=Nc2ccccc2N1`, the IC50 was 1.69 µM.
Consider `O=C(O)CC(C(=O)O)N1C(=O)/C(=C/c2ccc(-c3nc4ccccc4s3)o2)SC1=S` (stereo not drawn), for which the half-inhibitory concentration (IC50) is 6.36 µM.
The value for `CCC(c1ccc(O)c(O)c1)C(CC)c1ccc(O)c(O)c1` (stereo not drawn) was 6.46 µM; that for `CC(C)(C)C1C/C(=C/c2ccco2)C(=O)/C(=C/c2ccco2)C1` (stereo not drawn) was 2.65 µM.
As to `O=[N+]([O-])c1cc(/C=N\Nc2nccs2)ccc1O`, the IC50 was 1.62 µM.
For `Oc1ccccc1/C=N/c1c(-c2ccco2)nc2ccccn12`, the IC50 is 0.48 µM.
`CC(C)NC[C@@H](O)c1ccc(O)c(O)c1`: the IC50 is 4.93 µM.
The value for `CCc1ccccc1N(CC(=O)NCCSCc1ccco1)S(C)(=O)=O` was 78.4 µM; that for `CCOc1ccc(CCNC(=O)C2CC(C)=CCC2C(=O)O)cc1OCC` (stereo not drawn) was 56.6 µM.
The value for `C/C(=C\C(=O)c1ccc(C)cc1)Nc1cccc(O)c1` was 53.3 µM.
Turning to `Cc1ccc(-c2nc3s/c(=C\c4ccco4)c(=O)n3n2)cc1`, the IC50 was 27.6 µM.
With `Fc1ccccc1/C=C1\CCCC2=C1Nc1ncnn1C2c1ccccc1F` (stereo not drawn), the half-inhibitory concentration (IC50) is 38.3 µM.
`C=CCn1c(Sc2nc(C)cs2)nc2c1c(=O)[nH]c(=O)n2C`: the half-inhibitory concentration (IC50) was 94.2 µM.
For `O=C(O)c1ccc(-n2cccc2/C=C2/NC(=O)N(c3cccc(Cl)c3)C2=O)cc1`, the IC50 is 1.71 µM.
Consider `O=C(O)/C=C/C(=O)Nc1cccnc1`, for which the IC50 was 62.9 µM.
In the case of `CC(=C/c1ccco1)/C=N/NC(=O)Cc1cccn1C`, the IC50 is 1.91 µM.
Regarding `Nc1cccc2cc(S(=O)(=O)O)ccc12`, the IC50 was 35 µM.
Consider `C=CCn1c(SCC(=O)NCCCC)nc2scc(-c3ccco3)c2c1=O`, for which the IC50 is 20.4 µM.
To `Cc1c2ccccc2nc2c(F)c(N(C)C)c(F)c(F)c12` belongs 15.7 µM; to `Cc1ccc(Nc2cnn(C34CC5CC(CC(CC(=O)O)(C5)C3)C4)c(=O)c2Cl)cc1C`, 96.6 µM.
As for `COC1=C(OC)C(=O)C(Sc2ccc3ccccc3c2)=CC1=O`, the 50% inhibitory concentration (IC50) was 8.68 µM.
With `CCN(CC)c1ccc(C2NC(=O)NC(C)=C2C(=O)Nc2ccccc2)cc1` (stereo not drawn), the IC50 is 84.4 µM.
The value for `COc1ccc(-c2cc(C(=O)N/N=C/c3ccc(OC)c(COCC(F)(F)C(F)F)c3)c3ccccc3n2)c(OC)c1` was 26.2 µM; that for `CC[n+]1ccc(C)c2cc(P(=O)(c3ccccc3)c3ccccc3)ccc21` was 3.93 µM; that for `COC(=O)C1=C(O)/C(=C\c2ccc(CNC(=O)C(=O)Nc3ccc(C)c(C)c3)o2)N=C1C` was 34.1 µM.
For the molecule `O=C(OCC(=O)N1CCN(C(=O)c2ccco2)CC1)c1cc(-c2ccco2)nc2ccccc12`, the half-inhibitory concentration (IC50) is 3.95 µM.
As to `Cc1cc(O)c(-c2cc(O)c(C)cc2O)cc1O`, the IC50 was 8.44 µM.
As for `Cc1cc([N+](=O)[O-])cc2c1NC(c1ccccn1)C1CC=CC21` (stereo not drawn), the IC50 was 3.03 µM.
For `CC[C@H](C)/C=C(C)/C=C/C1=CC2=CC(=O)[C@]3(C)OC(=O)[C@@H](C(C)=O)[C@@H]3C2=CO1`, the IC50 is 13 µM.
With `COc1ccc(N=C2NC(=O)/C(=C\C=C\c3ccco3)S2)cc1`, the concentration for half-maximal inhibition (IC50) was 2.2 µM.
As for `CCc1cccc(NC(=O)CCS(=O)(=O)c2ccc(Br)cc2)c1`, the IC50 is 14.7 µM.
As for `O=C1C2CCCN2C(c2ccc(Cl)cc2)N1c1ccccn1` (stereo not drawn), the IC50 is 84.7 µM.
To `N#C/C(=C/c1ccc(Br)o1)C(N)=S` belongs 3.87 µM.
For `O=C(O)c1ccc(-n2nc(C(F)(F)F)c3c2-c2ccoc2CC3)cc1`, the IC50 was 58.6 µM.
`Cc1c(F)cccc1NC(=O)CCCCCC1NC(=O)NC1C` (stereo not drawn): the IC50 was 0.78 µM.
To `CC1=C(C(=O)Nc2ccccc2)C(c2ccc(C)o2)n2c(s/c(=C\c3ccco3)c2=O)=N1` (stereo not drawn) belongs 5.34 µM; to `O=C(CCN1CCN(c2ccccc2)CC1)N/N=C/c1ccc(O)c(O)c1O`, 1.02 µM.
For the molecule `O=S(=O)(O)c1cc(O)c(N=Nc2ccc(O)cc2O)c2ccccc12`, the concentration for half-maximal inhibition (IC50) was 5.25 µM.
Consider `CCCC(=O)Nc1ccc(Br)cn1`, for which the IC50 was 65.1 µM.
As for `COc1cccc(NS(=O)(=O)c2ccc3c(c2)C2C=CCC2C(c2ccc(C(=O)O)cc2)N3)c1` (stereo not drawn), the IC50 was 3.32 µM.
Take `O=C(CN1CCN(S(=O)(=O)c2ccc(F)cc2)CC1)c1ccc(O)c(O)c1`: the IC50 was 20.1 µM.
The value for `c1ccc(CSc2nnc(-c3ccco3)c(-c3ccco3)n2)cc1` was 6.93 µM; that for `O=C(NCc1ccccn1)c1coc(=O)c(Br)c1` was 58.6 µM; that for `O=C(CSc1nc(-c2ccco2)cc(C(F)(F)F)n1)N1CCc2ccccc2C1` was 22.8 µM.
The value for `Cn1c2ccccc2c2ccc3c(c21)C(=O)C=CC3=O` was 23.8 µM; that for `COCCNC(=O)Nc1ccc2nc(-c3ccco3)c(-c3ccco3)nc2c1` was 0.25 µM; that for `Cc1cc(C)c(S(=O)(=O)NCC2CCC(C(=O)N3CCC4(CC3)OCCO4)CC2)c(C)c1` (stereo not drawn) was 39.6 µM.
With `Cc1cc(C)c([N+](=O)[O-])cc1-c1ccc(/C=N/NC(=O)c2nonc2N)o1`, the IC50 was 52.7 µM.
The value for `O=C1/C(=C/C=C/c2ccco2)SC(=S)N1NS(=O)(=O)c1ccccc1` was 2.9 µM.
